# “Also recorded” adds a separate entry of the source.
# Test system: virus
# Test: Virus inactivation by detergent component versus nanoemulsion
# Assay type: cell-based
# Conditions: at concentrations equivalent to 11% X8P (BCTP)
# From the text: The nanoemulsions structure of the certain embodiments of the emulsions of the present invention may play a role in their biocidal activity as well as contributing to the non-toxicity of these emulsions. […] Adding the oil phase to the detergent and solvent markedly reduces the toxicity of these agents in tissue culture at the same concentrations. […] It should be noted that when all the components of X8P are combined in one composition but are not in a nanoemulsion structure, the mixture is not as effective as an antimicrobial as when the components are in a nanoemulsion structure.
# Individual components of nanoemulsions (e.g. in an immunogenic composition of the present invention) can function both to inactivate a pathogen as well as to contribute to the non-toxicity of the emulsions. […] Adding the oil phase to the detergent and solvent markedly reduces the toxicity of these agents in tissue culture at the same concentrations. […] Furthermore, when all the components of BCTP are combined in one composition but are not in a nanoemulsion structure, the mixture is not as effective at inactivating a pathogen as when the components are in a nanoemulsion structure.
substance,measurement,value
TRITON X-100 [TRITON-X100],biocidal activity against virus (ability to inactivate a virus),less biocidal activity; also recorded: less ability to inactivate a virus

# Reference: patent US20100316673A1, “NA[…]” (priority 2009, published 2010)
